# From patent US20250136568A1, “FUSED HETEROCYCLIC COMPOUNDS AS PI3KALPHA INHIBITORS” (Nanjing Zenshine Pharmaceuticals Co., Ltd., priority 2021, published 2025)
# Read-outs that look alike come from different tables or passages of the source.
# Key:
# [1] = test system: PI3Kα H1047R mutation cell line MDA-MB-453; experiment: Cell Proliferation IC50 Assay (CellTiter-Glo), MDA-MB-453; format: cell-based; details: Homo sapiens, read-out: IC50 (μM) MDA-MB-453
# Text: PI3Kα H1047R mutation cell line T-47D and MDA-MB-453, E545K mutation cell line MDA-MB-361 and PI3Kα wide type cell line SK-BR-3 were purchased from Cobioer Biotech (cat. no CBP60397, CBP60386, CBP60383 and CBP60413 respectively). The CellTiter-Glo Direct Cell Proliferation Assay Kit was purchased from Prornega (cat. No. G7573)
# For cell proliferation assay in each cell line: • a. Prepare complete medium (R PMI 1640, DMEM or McCoys): Add FBS and appropriate additives according to the information sheet provided by the vendor. Mix gently. • b. Prepare single cell suspension and count the cell numbers and adjust cells to appropriate density. • c. Add 80 μL of cell suspension to 96-well opaque-walled clear bottom plates according to the planned plate layout and place the plates in the CO2 incubator overnight. • d. Prepare intermediate plate: 10 μl of diluted test compounds or staurosporine solution (200×) is added to a 96 deep well plate. Then 390 μl of culture medium without FBS is added to the respective wells. • e. Transfer 20 μL of the solutions from the above intermediate plate to the wells of the plate prepared containing 80 μL of the culture medium and cells. The total dilution is 200 folds. • f. The cells were then incubated at 5% CO2, 37° C. for 72 hours. • g. Equilibrate the plate and its contents to room temperature for approximately 30 minutes. • h. Add 100 μL of CellTiter-Glo reagent to the assay plate • i. Mix contents for 10 minutes on an orbital shaker to induce cell lysis. • j. Allow the plate to incubate at room temperature for 10 minutes to stabilize luminescent signal, • k. Paste the clear bottom with white back seal and record luminescence with Varioskan LUX plate reader.
# Inhibition % and IC50 value were calculated by the formula described below: […]
# [2] = test system: PI3Kα wide type cell line SK-BR-3; experiment: Cell Proliferation IC50 Assay (CellTiter-Glo), SK-BR-3; format: cell-based; details: Homo sapiens; SK-BR-3 (PI3Kα wild type), 72 hours, CellTiter-Glo; read-out: IC50 (μM) SK-BR-3
# Method in brief: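 Cells were seeded and left overnight, then exposed to serially diluted compound (200-fold final dilution) for 72 h at 37 °C, 5% CO2. Viability was read by CellTiter-Glo luminescence. Percent inhibition and IC50 were calculated from the signal.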
# [3] = MDA-MB-453 (H1047R), 72 hours, CellTiter-Glo
SMILES,"IC50 [1, 3] [µM]",IC50 [2] [µM],"IC50 ([1]; MDA-MB-453, 72 h) [µM]"
"Cc1cc(C(C)Nc2ccccc2C(=O)O)c2oc(-c3ccc4cnn(C)c4c3)cc(=O)c2c1 (stereo not shown) [Example 52, 2-((1-(6-methyl-2-(1-methyl-1H-indazol-6-yl)-4-oxo-4H-chromen-8-yl)ethyl)amino)benzoic acid]",0.78,> 10,
"Cc1cc(C(C)Nc2ccccc2C(=O)O)c2oc(-c3ccc4nn(C5COC5)cc4c3)cc(=O)c2c1 (stereo not shown) [Example 56, 2-((1-(6-methyl-2-(2-(oxetan-3-yl)-2H-indazol-5-yl)-4-oxo-4H-chromen-8-yl)ethyl)amino)benzoic acid]",0.55,> 10,
"Cc1cc(C(C)Nc2ccccc2C(=O)O)c2oc(-c3ccc4nn(CCO)cc4c3)cc(=O)c2c1 (stereo not shown) [Example 57, 2-((1-(2-(2-(2-hydroxyethyl)-2H-indazol-5-yl)-6-methyl-4-oxo-4H-chromen-8-yl)ethyl)amino)benzoic acid]",0.62,> 10,
"COCCn1cc2cc(-c3cc(=O)c4cc(C)cc(C(C)Nc5ccccc5C(=O)O)c4o3)ccc2n1 (stereo not shown) [Example 58, 2-((1-(2-(2-(2-methoxyethyl)-211-indazol-5-yl)-6-methyl-4-oxo-4H-chromen-8-yl)ethyl)amino)benzoic acid]",0.27,> 10,
"Cc1cc(C(C)Nc2ccccc2C(=O)O)c2oc(-c3ccc4ncn(C)c4c3)cc(=O)c2c1 (stereo not shown) [Example 60, 2-((1-(6-methyl-2-(1-methyl-1H-benzo[d]imidazol-6-yl)-4-oxo-4H-chromen-8-yl)ethyl)amino)benzoic acid]",6,> 10,
"Cc1cc(C(C)Nc2ccccc2C(=O)O)c2oc(-c3cc4cn(C)nc4cc3C)cc(=O)c2c1 (stereo not shown) [Example 61, 2-((1-(2-(2,6-dimethyl-21-indazol-5-yl)-6-methyl-4-oxo-4H-chromen-8-yl)ethyl)amino)benzoic acid]",8.48,> 10,
"Cc1cc(C(C)Nc2ccccc2C(=O)O)c2oc(-c3ccc4nn(C)cc4c3C)cc(=O)c2c1 (stereo not shown) [Example 62, 2-((1-(2-(2,4-dimethyl-2H-indazol-5-yl)-6-methyl-4-oxo-4H-chromen-8-yl)ethyl)amino)benzoic acid]",0.47,> 10,
"Cc1cc(C(C)Nc2ccccc2C(=O)O)c2oc(-c3ccc(N4CCOCC4=O)cc3)cc(=O)c2c1 (stereo not shown) [Example 64, 2-((1-(6-methyl-4-oxo-2-(4-(3-oxomorpholino)phenyl)-4H-chromen-8-yl)ethyl)amino)benzoic acid]",1.9,> 10,
"CC(=O)N1CCN(c2ccc(-c3cc(=O)c4cc(C)cc(C(C)Nc5ccccc5C(=O)O)c4o3)cc2)CC1 (stereo not shown) [Example 65, 2-((1-(2-(4-(4-acetylpiperazin-1-yl)phenyl)-6-methyl-4-oxo-4H-chromen-8-yl)ethyl)amino)benzoic acid]",0.21,> 10,
"Cc1cc(C(C)Nc2ccccc2C(=O)O)c2oc(-c3ccc(N4CCOCC4C)cc3)cc(=O)c2c1 (stereo not shown) [Example 66, 2-((1-(6-methyl-2-(4-(3-methylmorpholino)phenyl)-4-oxo-4H-chromen-8-yl)ethyl)amino)benzoic acid]",0.2,> 10,
"Cc1cc(C(C)Nc2ccccc2C(=O)O)c2oc(-c3ccc(N4CCOC(C)C4)cc3)cc(=O)c2c1 (stereo not shown) [Example 67, 2-((1-(6-methyl-2-(4-(2-methylmorpholino)phenyl)-4-oxo-4H-chromen-8-yl)ethyl)amino)benzoic acid]",0.2,> 10,
"Cc1cc(C(C)Nc2ccccc2C(=O)O)c2oc(-c3ccc4nn(C)nc4c3)cc(=O)c2c1 (stereo not shown) [Example 69, 2-((1-(6-methyl-2-(2-methyl-2H-benzo[d][1,2,3]triazol-5-yl)-4-oxo-4H-chromen-8-yl)ethyl)amino)benzoic acid]",1.06,> 10,
"Cc1cc(C(C)Nc2ccccc2C(=O)O)c2oc(-c3ccc4nn(C)cc4n3)cc(=O)c2c1 (stereo not shown) [Example 84, 2-((1-(6-methyl-2-(2-methyl-2H-pyrazolo[4,3-b]pyridin-5-yl)-4-oxo-4H-chromen-8-yl)ethyl)amino)benzoic acid]",0.26,> 10,
"Cc1cc(C(C)Nc2ccccc2C(=O)O)c2oc(-c3ccc(N4CCN(C)CC4)cc3)c(C)c(=O)c2c1 (stereo not shown) [Example 90, 2-((1-(3,6-dimethyl-2-(4-(4-methylpiperazin-1-yl)phenyl)-4-oxo-4H-chromen-8-yl)ethyl)amino)benzoic acid]",0.09,> 10,
"Cc1cc(C(C)Nc2ccccc2C(=O)O)c2oc(-c3ccc4nn(C)c(C)c4c3)cc(=O)c2c1 (stereo not shown) [Example 111, 2-((1-(2-(2,3-dimethyl-2H-indazol-5-yl)-6-methyl-4-oxo-4H-chromen-8-yl)ethyl)amino)benzoic acid]",0.87,> 10,
"Cc1cc([C@@H](C)Nc2ccccc2C(=O)O)c2oc(-c3ccc(N4CCN(C5COC5)CC4)cc3)c(C)c(=O)c2c1 [Example 118, (R)-2-((1-(3,6-dimethyl-2-(4-(4-(oxetan-3-yl)piperazin-1-yl)phenyl)-4-oxo-4H-chromen-8-yl)ethyl)amino)benzoic acid]",,7.52,0.14
"Cc1cc(C(C)Nc2ccccc2C(=O)O)c2oc(-c3ccc4c(=O)n(C)ccc4c3)cc(=O)c2c1 (stereo not shown) [Example 120, 2-((1-(6-methyl-2-(2-methyl-1-oxo-1,2-dihydroisoquinolin-6-yl)-4-oxo-4H-chromen-8-yl)ethyl)amino)benzoic acid]",1.18,> 10,
"Cc1cc(C(C)Nc2ccccc2C(=O)O)c2oc(-c3ccc4c(=O)n(C)ncc4c3)cc(=O)c2c1 (stereo not shown) [Example 122, 2-((1-(6-methyl-2-(2-methyl-1-oxo-1,2-dihydrophthalazin-6-yl)-4-oxo-4H-chromen-8-yl)ethyl)amino)benzoic acid]",0.56,> 10,
"Cc1cc(C(C)Nc2ccccc2C(=O)O)c2oc(C3CCN(c4ccccn4)CC3)c(C)c(=O)c2c1 (stereo not shown) [Example 124, 2-((1-(3,6-dimethyl-4-oxo-2-(1-(pyridin-2-yl)piperidin-4-yl)-4H-chromen-8-yl)ethyl)amino)benzoic acid]",,> 10,0.5
"Cc1cc(C(C)Nc2ccccc2C(=O)O)c2oc(C3CCN(c4cccnc4)CC3)c(C)c(=O)c2c1 (stereo not shown) [Example 125, 2-((1-(3,6-dimethyl-4-oxo-2-(1-(pyridin-3-yl)piperidin-4-yl)-4H-chromen-8-yl)ethyl)amino)benzoic acid]",0.4,> 10,
"Cc1cc(C(C)Nc2ccccc2C(=O)O)c2oc(C3CCN(c4ccncc4)CC3)c(C)c(=O)c2c1 (stereo not shown) [Example 126, 2-((1-(3,6-dimethyl-4-oxo-2-(1-(pyridin-4-yl)piperidin-4-yl)-4H-chromen-8-yl)ethyl)amino)benzoic acid]",2.46,> 10,
"Cc1cc(C(C)Nc2ccccc2C(=O)O)c2oc(-c3ccc(S(C)(=O)=O)cc3)c(C)c(=O)c2c1 (stereo not shown) [Example 127, 2-((1-(3,6-dimethyl-2-(4-(methylsulfonyl)phenyl)-4-oxo-4H-chromen-8-yl)ethyl)amino)benzoic acid]",> 10,> 10,
"Cc1cc(C(C)Nc2ccccc2C(=O)O)c2oc(-c3ccc(CN4CCOCC4)cc3)c(C)c(=O)c2c1 (stereo not shown) [Example 128, 2-((1-(3,6-dimethyl-2-(4-(morpholinomethyl)phenyl)-4-oxo-4H-chromen-8-yl)ethyl)amino)benzoic acid]",0.16,> 10,
"Cc1cc(C(C)Nc2ccccc2C(=O)O)c2oc(-c3ccc(C(=O)N4CCOCC4)cc3)c(C)c(=O)c2c1 (stereo not shown) [Example 129, 2-((1-(3,6-dimethyl-2-(4-(morpholine-4-carbonyl)phenyl)-4-oxo-4H-chromen-8-yl)ethyl)amino)benzoic acid]",0.26,> 10,
"Cc1cc(C(C)Nc2ccccc2C(=O)O)c2oc(C3CCC(c4ccccc4)CC3)c(C)c(=O)c2c1 (stereo not shown) [Example 130, 2-((1-(3,6-dimethyl-4-oxo-2-(4-phenylcyclohexyl)-411-chromen-8-yl)ethyl)amino)benzoic acid]",> 10,> 10,
"Cc1cc(C(C)Nc2ccccc2C(=O)O)c2oc(-c3ccc(N4CCS(=O)(=O)CC4)cc3)c(C)c(=O)c2c1 (stereo not shown) [Example 132, 2-((1-(2-(4-(1,1-dioxidothiomorpholino)phenyl)-3,6-dimethyl-4-oxo-4H-chromen-8-yl)ethyl)amino)benzoic acid]",0.27,> 10,
